In patent US20190364891A1, “Chemical Compositions for Combating Honey Bee Pests and Pathogens” (Fort Lewis College, priority 2018, published 2019):

Experiments:
[1] = system: Varroa mites; assay: whole plant or invertebrate; conditions: for mite mortality: 24 h; for statistically significant mite mortality (Kruskal-Wallis): at 24 h, 100 mg/mL, 250 mg/mL, 1 g/mL tested, 15, 30 or 45 min exposure
Description: Efficacy of 12 caffeic and ferulic acid/ester molecules (caffeic acid, ferulic acid, caffeic acid cinnamyl ester, caffeic acid phenethyl ester, caffeic acid 3-methyl-3-butenyl ester, caffeic acid 3-methyl-2-butenyl ester, caffeic acid benzyl ester, ferulic acid cinnamyl ester, ferulic acid phenethyl ester, ferulic acid 3-methyl-3-butenyl ester, ferulic acid 3-methyl-2-butenyl ester, ferulic acid benzyl ester) against Varroa mites in a laboratory assay was determined. Adult female mites were collected from a single honey bee colony by uncapping drone cells and removing the mites to avoid injury that might occur if other methods (e.g., sugar shake) were used. Mites lacking vigor were discarded prior to experiment. Varroa were removed from single-age pupae, randomized, and placed in groups of ten in a sealed chamber. They were left in an incubator with pupae. After a set amount of time, the Varroa were transferred to a chamber with a potential miticide. The effects of each miticide were evaluated both through contact and through vapor. Concentrations and contact time were also evaluated. The Varroa were then transferred back to their chamber in the incubator and checked for mortality (each experiment in triplicate). […] Treatments were tested for their efficacy in repelling and killing mites.
To test for contact-phase miticidal activity, 250 μl of each treatment was evenly applied to a Whatman No. 4 filter paper in a Petri dish. The paper was allowed to completely dry before the assay and then it was adhered to the bottom of the dish. Ten mites per treatment were placed directly on the filter paper and the mites were kept in the dish for either 15 min, 30 min, or 45 min. After the initial time period, all mites were transferred into a sterile Petri dish and maintained in an incubator for 30 h. Each hour the mites were removed and observed under a dissecting lens. Each treatment concentration and exposure period was repeated three times.
Statistical analysis for repellency was conducted on the mean number of mites repelled and was compared by a two-way ANOVA. […] Percent mortality was compared between treatments by a non-parametric Kruskal-Wallis test.

[2] = system: Varroa mites; assay: Example 2: mites exposed to filter paper impregnated with the caffeic ester family, mite mortality and activity; set-up: species or system Varroa destructor; conditions: assessed 6 h, 24 h, 30 h post exposure; various concentrations and exposure times
Description: In a series of assays, Whatman filter paper was impregnated with various concentrations of the caffeic ester family of molecules. Varroa mites were freshly harvested from brood frames and then directly exposed to the substrate. The exposure time was varied across different experiments. The Varroa mites were removed and placed into an incubator with pupae to feed on. Mite mortality and mite activity was assessed at several time points (6 h, 24 h, 30 h) post exposure.

Row | Compound | mite mortality [1] | statistically significant mite mortality (Kruskal-Wallis) [1] | also measured
1 | O=C(/C=C/c1ccc(O)c(O)c1)OCC=Cc1ccccc1 [caffeic acid cinnamyl ester] | over 60% | – | –
2 | O=C(/C=C/c1ccc(O)c(O)c1)OCCc1ccccc1 [caffeic acid phenethyl ester] | – | – | relative efficacy (mite mortality and activity) [2]: most efficacious molecule tested
3 | O=C(O)/C=C/c1ccc(O)c(O)c1 [caffeic acid] | – | all of the molecules except caffeic acid and ferulic acid showed statistically significant mite mortality | –
4 | COc1cc(/C=C/C(=O)OCC=C(C)C)ccc1O [ferulic acid 3-methyl-2-butenyl ester] | over 60% | – | –
5 | COc1cc(/C=C/C(=O)O)ccc1O [ferulic acid] | – | all of the molecules except caffeic acid and ferulic acid showed statistically significant mite mortality | –
6 | Cc1ccc(C(C)C)c(O)c1 [thymol, reference compound] | – | – | mortality at 100000 µg/mL ([1]; Varroa destructor, 6 h, read-out: mortality (positive control)): 100%
